From patent US20240358693A1, “METHODS OF TREATING PAIN” (Aisa Pharma, Inc., priority 2023, published 2024)

System: participants with SSc-RP
Assay: Average severity of weekly RP attacks (VAS 0-10 cm scale)
Assay type: in vivo, human
Source text: The absolute change in average severity of weekly RP attacks (VAS 0-10 cm scale) from baseline to the end of each Dosing Period was and will be a secondary outcome variable. The sponsor-developed participant-informed diary will be used to record data. Average severity of weekly RP attacks is defined as the total severity scores of RP attacks divided by total number of RP attacks within the last 7 days of each dosing period. Total severity scores of RP attacks during the last 7 days of screening period divided by the total number of RP attacks will be used as baseline for the analysis of all periods. The variable will be calculated similar to frequency data as before.

[1] = Excluding Outliers, Tadalafil 5 mg, second Baseline RCS subgroup block (not named), ITT Part A
[2] = Excluding Outliers, Tadalafil 5 mg, second Baseline RCS subgroup block (not named), ITT Part A, score 0-10
[3] = Tadalafil 5 mg, n=1, Excluding Outliers, ITT Population - Part A
[4] = Tadalafil 5 mg, n=2, ITT Population - Part A
[5] = Tadalafil 5 mg, n=2, by Baseline RCS, second subgroup, ITT Population - Part A
[6] = Tadalafil 5 mg, Excluding Outliers, ITT Population - Part A
[7] = Tadalafil 5 mg, Excluding Outliers, by Baseline RCS, second subgroup, ITT Population - Part A
[8] = Tadalafil 5 mg, ITT Population - Part A
[9] = Tadalafil 5 mg, second Baseline RCS subgroup block (not named), ITT Part A
[10] = Tadalafil 5 mg, second Baseline RCS subgroup block (not named), ITT Part A, score 0-10

CN1CC(=O)N2[C@H](c3ccc4c(c3)OCO4)c3[nH]c4ccccc4c3C[C@@H]2C1=O [Tadalafil, tadalafil]
Average Severity of Weekly RP Attacks (All Attacks), Percent Change from Baseline, Mean [1]: −20.69% | Average Severity of Weekly RP Attacks (All Attacks), Percent Change from Baseline, Median [1]: −20.69% | Average Severity of Weekly RP Attacks (All Attacks), Change from Baseline, Mean [2]: −1.19 | Average Severity of Weekly RP Attacks (All Attacks), Change from Baseline, Median [2]: −1.19 | Average Severity of Weekly RP Attacks (All Attacks), Mean [2]: 4.56 | Average Severity of Weekly RP Attacks (All Attacks), Median [2]: 4.56 | Average Severity (0-10) of Weekly Symptomatic RP Attacks, Mean [3]: 4.67 | Average Severity (0-10) of Weekly Symptomatic RP Attacks, Median [3]: 4.67 | Average Severity of Weekly Symptomatic RP Attacks, Change from Baseline, Mean [3]: −1.32 | Average Severity of Weekly Symptomatic RP Attacks, Change from Baseline, Median [3]: −1.32 | Average Severity of Weekly Symptomatic RP Attacks, Percent Change from Baseline, Mean [3]: −22.01% | Average Severity of Weekly Symptomatic RP Attacks, Percent Change from Baseline, Median [3]: −22.01% | Average Severity (0-10) of Weekly Symptomatic RP Attacks, Mean [4]: 7.08 | Average Severity (0-10) of Weekly Symptomatic RP Attacks, Median [4]: 7.08 | Average Severity of Weekly Symptomatic RP Attacks, Change from Baseline, Mean [4]: −0.60 | Average Severity of Weekly Symptomatic RP Attacks, Change from Baseline, Median [4]: −0.60 | Average Severity of Weekly Symptomatic RP Attacks, Percent Change from Baseline, Mean [4]: −10.43% | Average Severity of Weekly Symptomatic RP Attacks, Percent Change from Baseline, Median [4]: −10.43% | Average Severity (0-10) of Weekly Symptomatic RP Attacks, Mean [5]: 7.08 | Average Severity (0-10) of Weekly Symptomatic RP Attacks, Median [5]: 7.08 | Average Severity of Weekly Symptomatic RP Attacks, Change from Baseline, Mean [5]: −0.60 | Average Severity of Weekly Symptomatic RP Attacks, Change from Baseline, Median [5]: −0.60 | Average Severity of Weekly Symptomatic RP Attacks, Percent Change from Baseline, Mean [5]: −10.43% | Average Severity of Weekly Symptomatic RP Attacks, Percent Change from Baseline, Median [5]: −10.43% | Average Severity of Weekly RP Attacks (All Attacks), Change from Baseline, Mean [6]: −1.19 | Average Severity of Weekly RP Attacks (All Attacks), Change from Baseline, Median [6]: −1.19 | Average Severity of Weekly RP Attacks (All Attacks), Mean [6]: 4.56 | Average Severity of Weekly RP Attacks (All Attacks), Median [6]: 4.56 | Average Severity of Weekly RP Attacks (All Attacks), Percent Change from Baseline, Mean [6]: −20.69% | Average Severity of Weekly RP Attacks (All Attacks), Percent Change from Baseline, Median [6]: −20.69% | Average Severity of Weekly Symptomatic RP Attacks (Mean) [7]: 4.67 | Average Severity of Weekly Symptomatic RP Attacks (Median) [7]: 4.67 | Average Severity of Weekly Symptomatic RP Attacks, Change from Baseline, Mean [7]: −1.32 | Average Severity of Weekly Symptomatic RP Attacks, Change from Baseline, Median [7]: −1.32 | Average Severity of Weekly Symptomatic RP Attacks, Percent Change from Baseline, Mean [7]: −22.01% | Average Severity of Weekly Symptomatic RP Attacks, Percent Change from Baseline, Median [7]: −22.01% | Average Severity of Weekly RP Attacks (All Attacks), Change from Baseline, Mean [8]: −0.47 | Average Severity of Weekly RP Attacks (All Attacks), Change from Baseline, Median [8]: −0.47 | Average Severity of Weekly RP Attacks (All Attacks), Mean [8]: 7.02 | Average Severity of Weekly RP Attacks (All Attacks), Median [8]: 7.02 | Average Severity of Weekly RP Attacks (All Attacks), Percent Change from Baseline, Mean [8]: −8.97% | Average Severity of Weekly RP Attacks (All Attacks), Percent Change from Baseline, Median [8]: −8.97% | Average Severity of Weekly RP Attacks (All Attacks), Percent Change from Baseline, Mean [9]: −8.97% | Average Severity of Weekly RP Attacks (All Attacks), Percent Change from Baseline, Median [9]: −8.97% | Average Severity of Weekly RP Attacks (All Attacks), Change from Baseline, Mean [10]: −0.47 | Average Severity of Weekly RP Attacks (All Attacks), Change from Baseline, Median [10]: −0.47 | Average Severity of Weekly RP Attacks (All Attacks), Mean [10]: 7.02 | Average Severity of Weekly RP Attacks (All Attacks), Median [10]: 7.02 | reduction in severity (more severe disease at baseline (RCS>5.0), n=2 per treatment): 6.3%
